Kd data for 1 molecule are collected here from publication PMC12822184, “Targeting E2F8 sensitizes gemcitabine-resistant gallbladder cancer to PARP inhibitors by disrupting RRM2-driven DNA repair” (Journal of Experimental & Clinical Cancer Research : CR, 2025).

The target in experiment [1] is T1, E2F8 DNA-binding domain (Homo sapiens, UniProt A0AVK6).
T1 construct: N-terminal thioredoxin-6xHis tag removed by TEV protease; E. coli Rosetta (DE3) pLysS
The experiment can be described thus: SPR (Biacore 8K, CM5 amine coupling, steady-state […]).

The target of experiment [2] is T2, E2F8 DNA-binding domain (Homo sapiens, UniProt A0AVK6, R156A/R314A).
T2 construct: N-terminal thioredoxin-6xHis tag removed by TEV protease; E. coli Rosetta (DE3) pLysS
T2 sequence (A0AVK6 110-350 R156A/R314A): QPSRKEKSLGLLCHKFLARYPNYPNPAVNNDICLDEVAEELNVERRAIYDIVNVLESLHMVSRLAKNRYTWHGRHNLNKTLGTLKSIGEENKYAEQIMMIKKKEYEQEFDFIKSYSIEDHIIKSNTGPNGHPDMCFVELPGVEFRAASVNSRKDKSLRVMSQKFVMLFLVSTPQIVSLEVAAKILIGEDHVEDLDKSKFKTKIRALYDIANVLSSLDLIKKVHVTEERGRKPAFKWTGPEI
Described as above.

T1 sequence (A0AVK6 110-350): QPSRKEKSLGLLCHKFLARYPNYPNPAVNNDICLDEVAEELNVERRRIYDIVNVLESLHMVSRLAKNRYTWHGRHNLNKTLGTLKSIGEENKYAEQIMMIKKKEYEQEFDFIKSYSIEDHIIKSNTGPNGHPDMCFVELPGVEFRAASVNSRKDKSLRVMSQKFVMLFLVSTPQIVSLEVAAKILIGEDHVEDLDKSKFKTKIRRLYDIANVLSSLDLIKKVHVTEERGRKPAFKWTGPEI

As a reminder, the Kd is the concentration at which binding is half-saturated. A low value points to higher affinity. Take `O=C(Nc1ccccc1C(=O)O)c1cccc(N2C(=O)c3ccc(C(=O)Nc4ccccc4C(=O)O)cc3C2=O)c1` [HIT-4]: the Kd amounted to 0.15 µM in experiment [1] and 7.96 µM in experiment [2].
